Common to all, as to assay type: functional
The subject of assay [1] is Escherichia coli. Nature of the assay: Antimicrobial activity against Escherichia coli ATCC 35695 after 16 hrs by broth microdilution method. To be noted: ATCC 35695, 16 h.
The subject of assay [2] is Acinetobacter baumannii. Nature of the assay: Antimicrobial activity against Acinetobacter baumannii ATCC 19606 after 16 hrs by broth microdilution method. To be noted: ATCC 19606 = CIP 70.34 = JCM 6841, 16 h.
The test system of assay [3] is Acinetobacter baumannii. Nature of the assay: Antimicrobial activity against multidrug-resistant Acinetobacter baumannii BAA-1605 after 16 hrs by broth microdilution method. To be noted: BAA-1605, 16 h.
Assay [4] deals with Klebsiella pneumoniae. The assay can be described thus: Antimicrobial activity against carbapenem-resistant Klebsiella pneumoniae BAA-2146 expressing […] gene after 16 hrs by broth microdilution method. To be noted: BAA-2146, 16 h.
Assay [5] concerns Staphylococcus epidermidis. The assay can be described thus: Antimicrobial activity against Staphylococcus epidermidis ATCC 29886 after 16 hrs by broth microdilution method. To be noted: ATCC 29886, 16 h.
Assay [6] concerns Staphylococcus epidermidis. Nature of the assay: Antimicrobial activity against methicillin-resistant Staphylococcus epidermidis ATCC 51625 after 16 hrs by broth microdilution method. To be noted: ATCC 51625, 16 h. For orientation: In broth dilution the organism is exposed to a series of concentrations in liquid medium.
The subject of assay [7] is Staphylococcus aureus. Nature of the assay: Antimicrobial activity against methicillin-susceptible Staphylococcus aureus ATCC 29213 after 16 hrs by broth microdilution method. To be noted: ATCC 29213, 16 h.
The test system of assay [8] is Staphylococcus aureus. Nature of the assay: Antimicrobial activity against methicillin-resistant Staphylococcus aureus BAA-44 after 16 hrs by broth microdilution method. To be noted: BAA-44, 16 h.

The term MIC denotes the lowest concentration found to suppress growth. Low values mean inhibition by little substance, high ones a need for much substance. On to `CC(C)Cc1cnc(N)n1Cc1ccccc1.Cl`, for which the MIC in assay [1] amounted to 128 µg/mL; in assay [2] it was 128 µg/mL; in assay [3], 128 µg/mL; in assay [4], 128 µg/mL; in assay [5] it was 16 µg/mL; in assay [6], 128 µg/mL. Besides, the minimal inhibitory concentration (MIC) in assay [7] and in assay [8] was 128 µg/mL throughout.

With `CCCCCn1c(Cc2ccccc2)cnc1N.Cl`, the MIC in assay [1] amounted to 64 µg/mL; in assay [2] it was 64 µg/mL; in assay [3], 64 µg/mL; in assay [4], 128 µg/mL; in assay [5], 32 µg/mL; in assay [6], 64 µg/mL. The MIC in assay [7] turned out to be 64 µg/mL; in assay [8], 128 µg/mL.

As for `CCCCCn1c(-c2ccccc2)cnc1N.Cl`, the MIC is 128 µg/mL in assay [1]; 64 µg/mL in assay [2]; 64 µg/mL in assay [3]; > 128 µg/mL in assay [4]; 16 µg/mL in assay [5]; 128 µg/mL in assay [6]. In addition, the MIC in assay [7] and in assay [8] was 64 µg/mL throughout.

In the case of `CCCCCCCCn1c(CCCCCC)cnc1N.Cl`, the MIC stood at 2 µg/mL in assay [1]; 8 µg/mL in assay [2]; 8 µg/mL in assay [3]; 32 µg/mL in assay [4]; 0.125 µg/mL in assay [5]; 2 µg/mL in assay [6]. Further, the minimum inhibitory concentration (MIC) in assay [7] and in assay [8] was 2 µg/mL in each case.

For `CCCCCn1c(CC(C)C)cnc1N.Cl`, the MIC came to 64 µg/mL in assay [1]; 64 µg/mL in assay [2]; 64 µg/mL in assay [3]; 128 µg/mL in assay [4]; 32 µg/mL in assay [5]; 128 µg/mL in assay [6]. Besides, the MIC was > 128 µg/mL in assay [7] and 128 µg/mL in assay [8].

For the molecule `CCCCCCCCn1c(Cc2ccccc2)cnc1N.Cl`, the MIC in assay [1] was 128 µg/mL; in assay [2], 128 µg/mL; in assay [3], 128 µg/mL; in assay [4], > 128 µg/mL; in assay [5] it was 128 µg/mL; in assay [6], 128 µg/mL. For the same molecule, the MIC in assay [7] and in assay [8] was 128 µg/mL throughout.

As to `Cl.Nc1ncc(CCCCNC(=O)OCc2ccccc2)n1Cc1ccccc1`, the minimal inhibitory concentration (MIC) in assay [1] was 64 µg/mL; in assay [2], 64 µg/mL; in assay [3] it was 64 µg/mL; in assay [4] it was 128 µg/mL; in assay [5], 32 µg/mL; in assay [6], 32 µg/mL. The minimum inhibitory concentration (MIC) in assay [7] and in assay [8] was 32 µg/mL throughout.

For the molecule `CCCCCCCCn1c(-c2ccccc2)cnc1N.Cl`, the MIC in assay [1] turned out to be 64 µg/mL; in assay [2], 16 µg/mL; in assay [3], 64 µg/mL; in assay [4] it was 128 µg/mL; in assay [5] it was 16 µg/mL; in assay [6] it was 64 µg/mL. Also, the MIC in assay [7] and in assay [8] was 64 µg/mL in each case.

On to `Cl.Nc1ncc(Cc2ccccc2)n1Cc1ccccc1`, for which the minimal inhibitory concentration (MIC) in assay [1] was 128 µg/mL; in assay [2], > 128 µg/mL; in assay [3], > 128 µg/mL; in assay [4], > 128 µg/mL; in assay [5] it was 128 µg/mL; in assay [6] it was 128 µg/mL. Besides, the minimum inhibitory concentration (MIC) in assay [7] and in assay [8] was > 128 µg/mL in each case.

As to `CCCCCn1c(CCCCNC(=O)OCc2ccccc2)cnc1N.Cl`, the MIC in assay [1] is 32 µg/mL; in assay [2], 128 µg/mL; in assay [3], 128 µg/mL; in assay [4], > 128 µg/mL; in assay [5], 16 µg/mL; in assay [6], 64 µg/mL. The MIC in assay [7] was 32 µg/mL; in assay [8], 128 µg/mL.

For `Cl.Nc1ncc(CCCCNC(=O)OCc2ccccc2)n1CCCc1ccccc1`, the MIC is 64 µg/mL in assay [1]; 32 µg/mL in assay [2]; 32 µg/mL in assay [3]; 128 µg/mL in assay [4]; 16 µg/mL in assay [5]; 16 µg/mL in assay [6]. Also, the MIC in assay [7] and in assay [8] was 16 µg/mL each time.

(Values after ChEMBL document CHEMBL1806468, “A facile synthesis of 1,5-disubstituted-2-aminoimidazoles: antibiotic activity of a first generation library” (2011).)
